Assay results from patent publication US20240041833A1, “PHARMACEUTICAL COMBINATION PRODUCT COMPRISING A PROTOPARVOVIRUS AND AN ANTIVIRAL BENZIMIDAZOLE AND USES THEREOF FOR TREATING CANCER” (priority 2020, published 2024).

How the values were obtained:
[1] = system: SNB-19 and U-373 glioma cells; settings: drug 4-0.156 μM in combination with H-1PV MOI 1 pfu/cell, 72 h; compared to cells infected only with H-1PV
Description: The screening was performed with the Agilent BioCel automated workstation housed in an Ermaflux L2 biosafety cabinet (equipped with charcoal filters to trap gases). The glioma cell lines SNB-19 and U-373 were used for the screening. Cells were seeded with the BRAVO pipettor in 384 well cell culture microplate at 15% confluence in medium supplemented with 10% FBS and penicillin/streptomycin. After overnight incubation half of the plates was infected with wild-type H-1 PV at MOI of 1 plaque forming unit (pfu)/cell, the other half kept untreated. All cells were then treated with 5 concentrations of each of the 1,443 compounds (5-point dose curve incorporating a […] dilution step in duplicates, range 4-0.156 μM). […] PrestoBlue® is a cell viability indicator by using the reducing power of living cells to quantitatively measure the proliferation of cells. […] Conversion is proportional to the number of metabolically active cells and therefore can be measured quantitatively. Quantitation of fluorescent signal intensity of the cell culture supernatant was carried out using the HTS-ready Berthold MITHRAS LB 940 fluorescent plate reader at excitation and emission wavelengths of 569/586 nm (reduced resazurin form resorufin). […]

[2] = system: different cancer cell lines of different origins; settings: in vitro, in combination with H-1PV; cited from earlier work
[3] = system: xenograft rat model of human pancreatic carcinoma; settings: in vivo, in combination with H-1PV; cited from earlier work
[4] = system: SNB-19 (glioma), AsPC-1 (pancreatic carcinoma), and PC3 (prostate cancer) cell lines; test: LDH assay of treatment-induced cell lysis (Example 4); assay type: cell-based, human; settings: H-1PV and/or increasing concentrations of LDV; 120 h (SNB19) or 96 h (AsPC1, PC3)
Description: (§1) In an lactate dehydrogenase assay (LDH assay) LDH released from a cell, e.g. due to cell lysis, oxidizes lactate to generate NADH, which then in turn reacts with a colorimetric substrate to generate a quantifiable colour change, which is directly correlated to the amount of LDH released and can, as such, used as a measure of cell lysis.
(§2) Cancer cell lines were seeded at a density of 3,000 (U-251, BxPC-3, Panc-1, DU-145, A-549, HOP-62 and Caki-1) or 4,000 (SNB-19, AsPC-1, PC3 and U-373) cells/well in 96-well plates in 50 μl of their respective culture medium supplemented with 10% heat inactivated FBS. After 24 h, 50 μl of FBS-free medium with or without H-1PV and/or Ledipasvir (LDV; Selleck Chemicals LLC, Houston, TX, USA) was added. Cells were incubated for 3-5 days and then subjected to […] LDH assay (CytoTox 96 non-radioactive cytotoxicity assay, Promega Madison, WI, USA), according to the manufacturer's instructions. For each condition tested, six replicates were prepared of which three were used for calculating the total lysis in the presence of detergent as previously described (25).
To further confirm the results shown in Examples 1-3, the oncolytic activity of H-1PV/LDV combination, was analysed by LDH assays. […]

[5] = system: U-251, BxPC-3, Panc-1, Du-145, A-549, Hop-62 and Caki-1 cancer cell lines; test: LDH assay of treatment-induced cell lysis (Example 6); assay type: cell-based, human; settings: LDV, H-1PV or both, 96 h, seven cancer cell lines
Description: as §1, §2
H-1 PV can target and kill a broad spectrum of cancer cell lines from different tumour entities. […] Treatment-induced cell lysis was analysed by LDH assay. […]

SNB-19 cells = test: Real-time detection of cell viability and proliferation (xCELLIgence); assay type: cell-based, human; settings: LDV and/or H-1PV, monitored every 30 min for 150 hours
Description: (§3) Human cancer cells were seeded into a 96-well E-plate (ACEA Biosciences, San Diego, CA, USA) at a density of 4000 cells/well. After 24 h, cells were infected or not with H-1PV and grown in the presence or absence of LDV. Growth of mock treated cells and virus infected cells was monitored in real-time every 30 min, for 6 days using the xCELLIgence System (ACEA). Cell proliferation was expressed as normalized cell index (CI), a parameter directly proportional to the number of attached cells per well and, therefore, strictly correlated with cell proliferation and viability. The growth curves represent the averages of the results of at least three replicates
(§4) The xCELLIgence system allows the monitoring in real time of cell proliferation and viability. This system was used to confirm the anti-cancer effect of H-1PV/LDV co-treatment. Three cancer cell lines were used for these experiments, namely glioma cell lines […], and pancreatic carcinoma cell line AsPC-1. Cells were treated (or not) with H-1PV in the presence or absence of LDV. Cell proliferation was monitored every 30 min for a total of 150 hours.
(§5) Cancer cells were seeded in a 96-well E-plate. […] Cell proliferation was monitored in real-time using the xCELLIgence system. The values in FIG. 4 are expressed as normalized cell index and plotted against time. […]

AsPC-1 cells = test: as above; assay type: cell-based, human; settings: LDV (1 and 4 μM) and/or H-1PV (up to MOI 100 pfu/cell), monitored for 150 hours
Description: as §3, §4, §5

U-373 glioma cells = test: LDH assay of treatment-induced cell lysis (Example 5); assay type: cell-based, human; settings: 4 μM LDV and/or increasing viral MOIs, 96 h
Description: as §1, §2
U-373 glioma cells treated (or not) with 4 μM LDV were infected (or not) with increasing viral MOIs (pfu/cell) and treatment-induced cell lysis was assessed by LDH assay.
U373 glioma cells, were grown for 24 h before being treated for 96 h as indicated. […]

[6] = system: SNB-19, U-373 and AsPC-1 cell lines; test: Optical microscopy analysis (IncuCyte ZOOM) of morphological/cytopathic effects; assay type: cell-based, human; settings: 4 μM LDV and/or H-1PV MOI 1 (SNB-19) or 100 (U-373, AsPC-1); 4 days (96 h) post-treatment
Description: Two glioblastoma cell lines (SNB-19 and U-373) and a pancreatic cell line (AsPC-1) displaying different susceptibility to H-1 PV infection were treated (or not) with increasing amounts of H-1PV (MOI, pfu/cell) in the presence or absence of 4 μM LDV.
The cancer cell lines indicated in FIG. 3 were plated at the same density. After 24 h, cells were infected (or not) with H-1 PV used at the MOI (pfu/cell) of 1 (SNB-19), or 100 (U-373 and AsPC-1) in combination (or not) with 4 μM LDV. Light microscopy images were acquired using the IncuCyte ZOOM™ live cell imaging system (Essen BioScience, MI USA) at 96 h after treatment.

| Structure (SMILES) | interaction with H-1PV: fold increase in H-1PV cytotoxicity (PrestoBlue) [1] | enhancement of H-1PV oncotoxicity [2] | enhancement of H-1PV oncotoxicity [3] | treatment-induced cell lysis (LDH) [4] | treatment-induced cell lysis (LDH) [5] | cell proliferation and viability (normalized cell index) (SNB-19 cells) | cell proliferation and viability (normalized cell index) (AsPC-1 cells) | treatment-induced cell lysis (LDH) (U-373 glioma cells) | cytotoxic / cytopathic effects and morphological changes [6] |
| --- | --- | --- | --- | --- | --- | --- | --- | --- | --- |
| CN(C)CC[C@H](CSc1ccccc1)Nc1ccc(S(=O)(=O)NC(=O)c2ccc(N3CCN(Cc4ccccc4-c4ccc(Cl)cc4)CC3)cc2)cc1[N+](=O)[O-] [ABT-737] | synergized with H-1PV | enhance H-1PV oncotoxicity in a synergistic manner | enhance H-1PV oncotoxicity in a synergistic manner | – | – | – | – | – | – |
| Oc1ccc(O)cc1 [Hydroquinone] | did not interact with H-1 PV | – | – | – | – | – | – | – | – |
| COC(=O)N[C@H](C(=O)N1CC2(CC2)C[C@H]1c1ncc(-c2ccc3c(c2)C(F)(F)c2cc(-c4ccc5nc([C@@H]6[C@H]7CC[C@H](C7)N6C(=O)[C@@H](NC(=O)OC)C(C)C)[nH]c5c4)ccc2-3)[nH]1)C(C)C [LDV, methyl N-[(2S)-1-[(6S)-6-[5-[9,9-difluoro-7-[2-[(1R,3S,4S)-2-[(2S)-2-(methoxycarbonylamino)-3-methylbutanoyl]-2-azabicyclo[2.2.1]heptan-3-yl]-3H-benzimidazol-5-yl]fluoren-2-yl]-1H-imidazol-2-yl]-5-azaspiro[2.4]heptan-5-yl]-3-methyl-1-oxobutan-2-yl]carbamate] | – | – | – | did not induce cell lysis | did not induced cell lysis | did not affect cell proliferation | did not affect cell proliferation | did not induce cell lysis | did not induce any evident cytotoxic effects |
